Like-named read-outs stand apart in the source and are kept apart here.
Key:
Assay type in all cases: biochemical
rhMAO-B = rhMAO-B (Homo sapiens (Human), UniProt P27338); test: MAO-B inhibition assay (modified Promega MAO-Glo)
Description: (§1) The capability of compounds described herein to inhibit MAO was determined using a modified Promega MAO-Glo™ assay kit. The substrate ((4S)-4,5-dihydro-2-(6-hydroxybenzothiazolyl)-4-thiazolecarboxylic acid) was converted by MAO to produce methyl ester luciferin. The luciferin was then converted by luciferase to produce oxyluciferin and light. The light was measured using a luminescence setting on the plate reader. A standard curve was prepared by serially diluting luciferin in reaction buffer. The standard kit reaction buffer was used—100 mM HEPES (pH 7.5), 5% glycerol. The substrate was dispensed into the wells so that the final concentration for MAO-A inhibition assay would be 10 μM and MAO-B inhibition assay would be 1 μM. Inhibitors were diluted in DMSO to 4× and distributed to the appropriate wells. Clorgyline and Deprenyl served as positive controls. rhMAO-A and rhMAO-B were purchased from Sigma. MAO-A or MAO-B was added to the appropriate wells. The plate was incubated for 1 hour, at room temperature with gentle shaking (90 rpm). The detection agent was added at equal volume (48 μL detection agent to 48 μL reaction). The plate was incubated for 20 minutes, at room temperature with gentle shaking (90 rpm). The plate luminescence was read. Data processing was performed using Prism software.
(§2) The capability of compounds described herein to inhibit MAO was determined using a modified Promega MAO-Glo™ assay. Test compounds, substrate and enzyme were incubated per manufacturer instructions for 1 hour, at room temperature with gentle shaking (90 rpm) before addition of detection agent. The detection agent was added at equal volume (48 μL detection agent to 48 μL reaction). The plate was incubated for 20 minutes, at room temperature with gentle shaking (90 rpm). The plate luminescence was read. Data processing was performed using Prism software.

rhVAP-1 = rhVAP-1 (Homo sapiens (Human), UniProt Q16853); test: VAP-1 fluorometric assay (Amplex Red/HRP, H2O2 from oxidative deamination of benzylamine); conditions: rhVAP-1, 50 μM benzylamine, 30 minutes at 37° C., pH 7.4
Chain of rhVAP-1 (Q16853 whole entry): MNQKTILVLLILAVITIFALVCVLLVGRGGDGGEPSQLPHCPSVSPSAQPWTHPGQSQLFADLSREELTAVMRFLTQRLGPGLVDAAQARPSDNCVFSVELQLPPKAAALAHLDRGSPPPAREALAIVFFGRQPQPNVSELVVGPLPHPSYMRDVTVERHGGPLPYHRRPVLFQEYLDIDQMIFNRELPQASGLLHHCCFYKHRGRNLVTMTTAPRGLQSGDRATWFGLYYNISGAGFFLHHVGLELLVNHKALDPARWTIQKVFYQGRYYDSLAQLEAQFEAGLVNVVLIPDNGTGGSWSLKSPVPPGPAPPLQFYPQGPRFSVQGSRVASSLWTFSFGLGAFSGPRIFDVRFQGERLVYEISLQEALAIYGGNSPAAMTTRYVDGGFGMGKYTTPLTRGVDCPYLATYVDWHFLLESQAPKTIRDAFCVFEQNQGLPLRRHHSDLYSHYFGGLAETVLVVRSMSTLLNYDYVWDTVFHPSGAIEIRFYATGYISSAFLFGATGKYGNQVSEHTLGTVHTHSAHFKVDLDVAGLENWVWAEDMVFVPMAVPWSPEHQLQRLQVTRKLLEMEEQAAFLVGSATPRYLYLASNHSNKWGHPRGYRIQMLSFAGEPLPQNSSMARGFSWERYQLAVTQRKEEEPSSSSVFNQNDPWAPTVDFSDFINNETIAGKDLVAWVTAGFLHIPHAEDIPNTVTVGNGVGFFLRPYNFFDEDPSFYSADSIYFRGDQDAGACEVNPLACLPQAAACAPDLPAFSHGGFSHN
Description: The capability of compounds described herein to inhibit the enzymatic activity of vascular adhesion protein-1 (VAP-1) was determined by fluorometric assay. The assay procedure provided by R&D Systems was modified slightly for use as an inhibitor screening assay. The assay measured the H2O2 generated from the oxidative deamination of benzylamine by rhVAP-1 by converting Amplex® Red to the fluorescent product, resorufin, via horseradish peroxidase (HRP) and H2O2. Reaction buffer was 10 mM NaHCO3, pH 7.4. A standard curve was prepared by serially diluting H2O2 in reaction buffer. A 10 μM solution of resorufin was prepared in reaction buffer and was dispensed to 2 wells. These wells served as positive control for maximum fluorescence. Reaction buffer was added to the individual wells so that the final volume in each well was 100 μL. Amplex Red was diluted to 1 mM in reaction buffer. A 10 U stock of HRP was prepared in reaction buffer. A reaction cocktail was prepared by mixing equal parts 1 mM Amplex Red with 10 U HRP with 3 parts reaction buffers. The reaction cocktail was added to the appropriate wells, so that that final concentration in the well was 0.05 mM Amplex Red and 0.5 U HRP. A 200 μM solution of benzylamine was prepared in reaction buffer. Benzylamine was added to the appropriate wells so that the final concentration was 50 μM. Inhibitors were diluted in DMSO to 20× and distributed to the appropriate wells. UP-1207 served a positive control. rhVAP-1 was purchased from R&D Systems. The concentration used for each lot was determined so that the activity was equal to the first lot. […] The plate was read at […]. […]
The capability of compounds described herein to inhibit the enzymatic activity of vascular adhesion protein-1 (VAP-1) was determined by fluorometric assay. […] The assay measured the H2O2 generated from the oxidative deamination of benzylamine by rhVAP-1 by converting Amplex® Red to the fluorescent product, resorufin, via horseradish peroxidase (HRP) and H2O2. […] The plate was read at 530/35 emission and 590/35 excitation. […]

rhMAO-A = rhMAO-A (Homo sapiens (Human), UniProt P21397); test: MAO-A inhibition assay (modified Promega MAO-Glo); conditions: substrate 10 μM, 1 hour at room temperature
Chain of rhMAO-A (P21397 whole entry): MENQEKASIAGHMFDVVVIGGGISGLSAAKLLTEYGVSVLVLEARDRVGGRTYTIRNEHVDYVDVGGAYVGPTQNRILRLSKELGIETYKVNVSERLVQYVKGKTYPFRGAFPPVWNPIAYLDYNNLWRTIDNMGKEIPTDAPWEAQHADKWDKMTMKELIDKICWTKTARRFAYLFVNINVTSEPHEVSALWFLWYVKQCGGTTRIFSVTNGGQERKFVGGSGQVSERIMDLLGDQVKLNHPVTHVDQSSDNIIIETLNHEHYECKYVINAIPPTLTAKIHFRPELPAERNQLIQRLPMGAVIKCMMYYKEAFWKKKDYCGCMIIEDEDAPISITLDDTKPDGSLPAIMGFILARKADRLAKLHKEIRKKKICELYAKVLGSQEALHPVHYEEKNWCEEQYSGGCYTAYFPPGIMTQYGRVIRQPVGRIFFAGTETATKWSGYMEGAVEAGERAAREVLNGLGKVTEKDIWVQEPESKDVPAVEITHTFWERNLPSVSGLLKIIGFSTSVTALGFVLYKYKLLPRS
Description: as §1, §2

[1] = rhMAO-B, substrate 1 μM, 1 hour at room temperature, read-out: MAO B IC50

Chain of rhMAO-B (P27338 whole entry): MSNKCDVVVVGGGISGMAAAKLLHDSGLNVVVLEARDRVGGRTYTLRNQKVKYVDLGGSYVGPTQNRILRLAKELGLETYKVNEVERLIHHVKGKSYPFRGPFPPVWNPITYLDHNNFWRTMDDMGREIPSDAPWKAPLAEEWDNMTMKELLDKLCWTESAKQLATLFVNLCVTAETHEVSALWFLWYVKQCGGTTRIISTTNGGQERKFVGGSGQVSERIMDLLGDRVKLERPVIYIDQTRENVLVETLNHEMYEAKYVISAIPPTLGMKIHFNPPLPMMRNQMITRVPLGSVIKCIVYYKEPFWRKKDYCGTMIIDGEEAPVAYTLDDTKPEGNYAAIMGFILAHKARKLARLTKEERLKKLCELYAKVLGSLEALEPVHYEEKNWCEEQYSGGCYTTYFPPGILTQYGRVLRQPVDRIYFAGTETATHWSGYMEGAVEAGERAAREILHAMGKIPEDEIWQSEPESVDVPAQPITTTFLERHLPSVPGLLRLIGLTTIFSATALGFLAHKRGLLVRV

| SMILES | IC50 (rhMAO-B) | IC50 (rhVAP-1) | IC50 (rhMAO-A) | IC50 (rhMAO-B; [1]) |
| --- | --- | --- | --- | --- |
| CCCCn1nc2ccc(OC/C(=C\F)CN)cc2n1 [Example 66, (Z)-2-(((2-butyl-2H-benzo[d][1,2,3]triazol-5-yl)oxy)methyl)-3-fluoroprop-2-en-1-amine 4-methylbenzenesulfonate] | 100 to 1000 nM | < 100 nM | 1000 to 10000 nM |  |
| CC1CCN(c2nc3ccc(OC/C(=C/F)CN)cc3o2)C1 (stereo not drawn) [Example 30, (E)-3-fluoro-2-(((2-(3-methylpyrrolidin-1-yl)benzo[d]oxazol-6-yl)oxy)methyl)prop-2-en-1-amine 4-methylbenzenesulfonate] |  | < 100 nM | 10000 to 30000 nM | 100 to 1000 nM |
| CC1CCN(c2nc3ccc(OC/C(=C\F)CN)cc3o2)C1 (stereo not drawn) [Example 42, (Z)-3-fluoro-2-(((2-(3-methylpyrrolidin-1-yl)benzo[d]oxazol-6-yl)oxy)methyl)prop-2-en-1-amine 4-methylbenzenesulfonate] |  | < 100 nM | 1000 to 10000 nM | 1000 to 10000 nM |

From patent US11787791B2, “Inhibitors of VAP-1” (ACUCELA INC., priority 2018, dated 2023)
